Data taken from patent US8697385B1, “Protein controlling synthesis of collagen and associated methods” (Florida State University Research Foundation, Inc., priority 2009, dated 2014).

Legend:
[1] = test system: nonmuscle myosin IIB; experiment: Immunoprecipitation of nonmuscle myosin IIB and RT-PCR of collagen mRNAs; type: cell-based, human; conditions: lung fibroblasts; cycloheximide 100 μg/ml or puromycin 200 μg/ml, 2 h
Description: ML-7, blebbistatin, cytochalasin B, puromycin, and cycloheximide were purchased from Sigma. ML-7 was used at 40 μM, blebbistatin was used at 100 μM, and cytochalasin B was used at 20 μM. Cells were incubated with the drugs for 16 h before analysis. Puromycin (200 μg/ml) and cycloheximide (100 μg/ml) were added to the cells for 2 h. Human lung fibroblasts have been described previously.16 Scleroderma fibroblasts were purchased from the European Collection of Cell Cultures (cell line BM0070) and derived from the skin of a scleroderma patient. MEFs were derived from knock-in mice in which the 5′SL of the collagen α1(I) gene has been mutated (Parsons et al., submitted). […] [^32P]dCTP was included in the PCR step to label the products, which were resolved on sequencing gels, as described previously.^8,31,49,50 When RNA from polysomal fractions was analyzed, an equal aliquot of each fraction was used. […]
One of the roles of nonmuscle myosin filaments may be to present collagen mRNAs to ribosomes. Therefore, we assessed if the association of collagen mRNAs with nonmuscle myosin is dependent on intact polysomes. […] We then immunoprecipitated nonmuscle myosin from lung fibroblasts treated with cycloheximide or puromycin and analyzed if this can change the pull-down of collagen mRNAs. As control, the association with vimentin was analyzed in the same samples (FIG. 9b). […]

[2] = test system: human lung fibroblasts; experiment: Western blot analysis of cellular and medium collagen polypeptides, lung fibroblasts; type: cell-based; conditions: 16 h, ML-7 40 μM, blebbistatin 100 μM, vs control cells; for secretion of collagen α1(I) polypeptide into the medium / secretion of collagen α2(I) polypeptide into the medium / secretion/expression of fibronectin: cytochalasin B 20 μM
Description: (§1) ML-7, blebbistatin, cytochalasin B, puromycin, and cycloheximide were purchased from Sigma. ML-7 was used at 40 μM, blebbistatin was used at 100 μM, and cytochalasin B was used at 20 μM. Cells were incubated with the drugs for 16 h before analysis. Puromycin (200 μg/ml) and cycloheximide (100 μg/ml) were added to the cells for 2 h. Human lung fibroblasts have been described previously.16 Scleroderma fibroblasts were purchased from the European Collection of Cell Cultures (cell line BM0070) and derived from the skin of a scleroderma patient. MEFs were derived from knock-in mice in which the 5′SL of the collagen α1(I) gene has been mutated (Parsons et al., submitted). Several independent cell isolates were used throughout the study. All cells were cultured in Dulbecco's modified Eagle's medium supplemented with 10% fetal bovine serum for up to 10 passages. Plasmid constructs and adenovirus preparation. The HA-tagged LARP6 clone and the deletion mutants have been described previously.^16 Adenoviruses were constructed by recloning of the constructs into the pAdCMVTRACK vector, followed by recombination with the pAdEasy vector and amplification, as described previously.^48 Expression of each construct was verified by Western blot analysis. The viruses made express both the full-size test protein and the green fluorescent protein (GFP), which is encoded by an independent transcription unit.^48 Expression of GFP served as control for viral transduction. RT-PCR analysis Total cellular RNA was isolated using an RNA isolation kit (Sigma). RT-PCRs were performed with 100 ng of total RNA or using rTth reverse transcriptase (Boca Scientific, Boca Raton, Fla.). [^32P]dCTP was included in the PCR step to label the products, which were resolved on sequencing gels, as described previously.^8,31,49,50 When RNA from polysomal fractions was analyzed, an equal aliquot of each fraction was used. The number of cycles was adjusted to within the linear range of the reaction. The primers used for RT-PCR were as follows: h-collagen α1(I), 5′ primer […] (SEQ ID NO:3) and 3′ primer […] (SEQ ID NO:4); h-collagen α2(I), 5′ primer […] (SEQ ID NO:5) and 3′ primer […] (SEQ ID NO:6).
(§2) Protein concentration was estimated by the Bradford assay, with bovine serum albumin as standard.^51 Western blot analyses of cellular proteins were performed using 50 μg of protein. For Western blot analysis of secreted proteins, equal numbers of cells were seeded, serum-free medium was added to the cells, and incubation continued for 3 h. The medium was collected, and an aliquot was analyzed directly by Western blot analysis. Use of serum free medium in collecting secreted proteins is essential because fetal calf serum contains substantial amounts of collagen and fibronectin.^15,31 For immunostaining, cells were seeded onto glass coverslips. After treatment, the cells were fixed with 4% paraformaldehyde for 30 min at room temperature and permeabilized with 0.5% Triton X-100 in phosphatebuffered saline (PBS) for 10 min. After the cells had been blocked with 10% goat serum/5% bovine serum albumin in PBS for 1 h at room temperature, they were incubated with primary antibody overnight at 4° C., washed, and visualized with AlexaFluor594-conjugated or Cy-2-conjugated secondary antibodies. The cells were mounted using VECTASHIELD mounting medium containing […], 6-diamidino-2-phenylindole (Vector Laboratories), and images were taken by a Leica TCS SP2 AOBS laser confocal microscope equipped with a Chameleon Ti: Sapphire multiphoton laser. Optical sections were processed with LCSLite software.
(§3) To assess the role of nonmuscle myosin in collagen synthesis, we disrupted nonmuscle myosin filaments in two different cell types: primary human lung fibroblasts and primary scleroderma skin fibroblasts. These cells are responsible for lung and skin fibrosis. […]

[3] = test system: primary scleroderma skin fibroblasts; experiment: Western blot analysis of cellular and medium collagen polypeptides, scleroderma fibroblasts; type: cell-based, human; conditions: 16 h, ML-7 40 μM, blebbistatin 100 μM; for secretion of collagen α1(I) polypeptide into the medium / secretion of collagen α2(I) polypeptide into the medium / secretion/expression of fibronectin: cytochalasin B 20 μM
Description: as §1, §2, §3

[4] = molecular target: T1, nonmuscle myosin IIA (human, UniProt P35579 2-1960); experiment: co-immunoprecipitation with anti-HA antibody from human lung fibroblasts, Western blot with anti-myosin IIA
T1 construct: Endogenous protein in lysate of human lung fibroblasts, detected with anti-myosin IIA antibody; also called MYO IIA
Description: (§4) HA, Western blot analysis using anti-HA antibody as control for immunoprecipitation efficiency of the tagged proteins. (c) Experiment as in (b), but Western blot analysis was performed using anti-myosin IIA antibody (MYO IIA). […] Experiment as in (b), but the lysate was treated with Rnase. A prior to immunoprecipitation (lane 1) or was not treated (lanes 2 and 3). The immunoprecipitate was analyzed with anti-myosin IIB antibody (MYO IIB), anti-fibronectin antibody (FIB; as control for specificity), and anti-HA antibody (HA; as control for precipitation efficiency).

[5] = molecular target: T2, nonmuscle myosin IIB (human, UniProt P35580 1-1976, limits assumed); experiment: co-immunoprecipitation with anti-HA antibody from human lung fibroblasts, Western blot with anti-myosin IIB
T2 construct: Endogenous protein in lysate of human lung fibroblasts, detected by Western blot with anti-myosin IIB (anti-MYH10) antibody; also called MYO IIB; MYH10
Description: as §4

[6] = molecular target: T3, fibronectin (human, UniProt P02751 32-2477, limits assumed); experiment: co-immunoprecipitation with anti-HA antibody from human lung fibroblasts, Western blot with anti-fibronectin
T3 construct: Specificity control in the co-immunoprecipitations, detected with anti-fibronectin antibody
T3 sequence (P02751 32-2477 limits assumed): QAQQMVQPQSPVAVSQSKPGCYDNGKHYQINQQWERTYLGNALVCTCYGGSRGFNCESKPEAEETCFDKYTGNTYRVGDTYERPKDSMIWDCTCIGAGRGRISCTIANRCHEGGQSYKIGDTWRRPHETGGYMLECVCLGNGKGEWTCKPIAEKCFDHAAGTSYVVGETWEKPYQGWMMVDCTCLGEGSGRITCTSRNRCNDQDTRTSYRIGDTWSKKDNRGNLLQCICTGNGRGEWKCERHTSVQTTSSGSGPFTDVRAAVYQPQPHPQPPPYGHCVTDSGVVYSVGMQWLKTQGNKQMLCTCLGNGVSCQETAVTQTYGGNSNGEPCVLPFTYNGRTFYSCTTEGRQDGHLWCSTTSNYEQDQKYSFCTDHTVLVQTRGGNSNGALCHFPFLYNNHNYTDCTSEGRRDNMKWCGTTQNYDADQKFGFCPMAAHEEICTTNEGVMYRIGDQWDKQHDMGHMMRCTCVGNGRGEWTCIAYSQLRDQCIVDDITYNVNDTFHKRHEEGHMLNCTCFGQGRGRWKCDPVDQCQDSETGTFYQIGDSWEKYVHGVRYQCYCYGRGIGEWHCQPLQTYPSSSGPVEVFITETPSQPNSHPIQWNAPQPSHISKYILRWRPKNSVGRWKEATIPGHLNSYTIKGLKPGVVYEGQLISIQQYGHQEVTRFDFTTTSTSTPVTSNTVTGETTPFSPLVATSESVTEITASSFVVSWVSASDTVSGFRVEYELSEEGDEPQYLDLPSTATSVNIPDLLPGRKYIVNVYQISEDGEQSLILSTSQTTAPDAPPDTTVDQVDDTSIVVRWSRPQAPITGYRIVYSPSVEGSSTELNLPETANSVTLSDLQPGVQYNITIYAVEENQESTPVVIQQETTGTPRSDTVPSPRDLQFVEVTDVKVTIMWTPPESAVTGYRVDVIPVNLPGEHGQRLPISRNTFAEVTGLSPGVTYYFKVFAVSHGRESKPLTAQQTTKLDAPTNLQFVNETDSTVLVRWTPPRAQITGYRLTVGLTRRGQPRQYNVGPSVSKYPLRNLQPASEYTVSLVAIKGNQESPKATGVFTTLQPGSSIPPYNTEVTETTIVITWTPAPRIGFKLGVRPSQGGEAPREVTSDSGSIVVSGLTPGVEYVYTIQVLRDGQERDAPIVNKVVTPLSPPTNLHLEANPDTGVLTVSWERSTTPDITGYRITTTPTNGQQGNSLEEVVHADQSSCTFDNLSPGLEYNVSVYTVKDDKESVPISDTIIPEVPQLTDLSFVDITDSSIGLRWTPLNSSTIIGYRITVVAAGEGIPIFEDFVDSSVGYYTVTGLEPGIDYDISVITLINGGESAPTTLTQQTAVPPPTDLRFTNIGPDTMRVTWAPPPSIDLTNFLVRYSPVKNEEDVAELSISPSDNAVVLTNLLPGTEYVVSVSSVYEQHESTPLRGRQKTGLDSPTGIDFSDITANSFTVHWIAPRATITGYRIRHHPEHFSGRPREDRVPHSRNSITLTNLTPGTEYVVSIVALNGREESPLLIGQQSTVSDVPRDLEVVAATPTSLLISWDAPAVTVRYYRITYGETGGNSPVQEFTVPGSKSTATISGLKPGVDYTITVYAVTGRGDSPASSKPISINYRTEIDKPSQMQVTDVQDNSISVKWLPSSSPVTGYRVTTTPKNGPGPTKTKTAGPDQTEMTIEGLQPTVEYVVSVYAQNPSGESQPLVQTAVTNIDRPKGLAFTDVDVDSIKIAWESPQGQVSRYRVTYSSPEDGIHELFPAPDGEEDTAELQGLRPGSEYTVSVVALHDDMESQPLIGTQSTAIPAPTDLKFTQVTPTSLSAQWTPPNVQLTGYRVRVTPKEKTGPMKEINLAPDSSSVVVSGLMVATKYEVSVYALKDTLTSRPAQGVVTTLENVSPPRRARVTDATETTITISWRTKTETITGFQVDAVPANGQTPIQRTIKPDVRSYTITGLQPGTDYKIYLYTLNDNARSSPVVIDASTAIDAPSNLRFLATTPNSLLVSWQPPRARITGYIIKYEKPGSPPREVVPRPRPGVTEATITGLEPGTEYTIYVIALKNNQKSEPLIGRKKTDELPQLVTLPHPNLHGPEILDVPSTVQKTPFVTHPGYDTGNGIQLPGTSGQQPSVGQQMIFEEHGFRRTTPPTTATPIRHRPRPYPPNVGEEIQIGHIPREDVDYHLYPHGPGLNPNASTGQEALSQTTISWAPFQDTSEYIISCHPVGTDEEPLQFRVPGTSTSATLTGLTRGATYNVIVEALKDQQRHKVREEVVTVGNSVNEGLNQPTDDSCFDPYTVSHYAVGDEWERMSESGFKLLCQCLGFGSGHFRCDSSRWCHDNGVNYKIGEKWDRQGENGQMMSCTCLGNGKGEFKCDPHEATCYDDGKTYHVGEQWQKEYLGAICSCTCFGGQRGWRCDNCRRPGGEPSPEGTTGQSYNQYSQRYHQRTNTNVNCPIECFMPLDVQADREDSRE

T2 sequence (P35580 whole entry): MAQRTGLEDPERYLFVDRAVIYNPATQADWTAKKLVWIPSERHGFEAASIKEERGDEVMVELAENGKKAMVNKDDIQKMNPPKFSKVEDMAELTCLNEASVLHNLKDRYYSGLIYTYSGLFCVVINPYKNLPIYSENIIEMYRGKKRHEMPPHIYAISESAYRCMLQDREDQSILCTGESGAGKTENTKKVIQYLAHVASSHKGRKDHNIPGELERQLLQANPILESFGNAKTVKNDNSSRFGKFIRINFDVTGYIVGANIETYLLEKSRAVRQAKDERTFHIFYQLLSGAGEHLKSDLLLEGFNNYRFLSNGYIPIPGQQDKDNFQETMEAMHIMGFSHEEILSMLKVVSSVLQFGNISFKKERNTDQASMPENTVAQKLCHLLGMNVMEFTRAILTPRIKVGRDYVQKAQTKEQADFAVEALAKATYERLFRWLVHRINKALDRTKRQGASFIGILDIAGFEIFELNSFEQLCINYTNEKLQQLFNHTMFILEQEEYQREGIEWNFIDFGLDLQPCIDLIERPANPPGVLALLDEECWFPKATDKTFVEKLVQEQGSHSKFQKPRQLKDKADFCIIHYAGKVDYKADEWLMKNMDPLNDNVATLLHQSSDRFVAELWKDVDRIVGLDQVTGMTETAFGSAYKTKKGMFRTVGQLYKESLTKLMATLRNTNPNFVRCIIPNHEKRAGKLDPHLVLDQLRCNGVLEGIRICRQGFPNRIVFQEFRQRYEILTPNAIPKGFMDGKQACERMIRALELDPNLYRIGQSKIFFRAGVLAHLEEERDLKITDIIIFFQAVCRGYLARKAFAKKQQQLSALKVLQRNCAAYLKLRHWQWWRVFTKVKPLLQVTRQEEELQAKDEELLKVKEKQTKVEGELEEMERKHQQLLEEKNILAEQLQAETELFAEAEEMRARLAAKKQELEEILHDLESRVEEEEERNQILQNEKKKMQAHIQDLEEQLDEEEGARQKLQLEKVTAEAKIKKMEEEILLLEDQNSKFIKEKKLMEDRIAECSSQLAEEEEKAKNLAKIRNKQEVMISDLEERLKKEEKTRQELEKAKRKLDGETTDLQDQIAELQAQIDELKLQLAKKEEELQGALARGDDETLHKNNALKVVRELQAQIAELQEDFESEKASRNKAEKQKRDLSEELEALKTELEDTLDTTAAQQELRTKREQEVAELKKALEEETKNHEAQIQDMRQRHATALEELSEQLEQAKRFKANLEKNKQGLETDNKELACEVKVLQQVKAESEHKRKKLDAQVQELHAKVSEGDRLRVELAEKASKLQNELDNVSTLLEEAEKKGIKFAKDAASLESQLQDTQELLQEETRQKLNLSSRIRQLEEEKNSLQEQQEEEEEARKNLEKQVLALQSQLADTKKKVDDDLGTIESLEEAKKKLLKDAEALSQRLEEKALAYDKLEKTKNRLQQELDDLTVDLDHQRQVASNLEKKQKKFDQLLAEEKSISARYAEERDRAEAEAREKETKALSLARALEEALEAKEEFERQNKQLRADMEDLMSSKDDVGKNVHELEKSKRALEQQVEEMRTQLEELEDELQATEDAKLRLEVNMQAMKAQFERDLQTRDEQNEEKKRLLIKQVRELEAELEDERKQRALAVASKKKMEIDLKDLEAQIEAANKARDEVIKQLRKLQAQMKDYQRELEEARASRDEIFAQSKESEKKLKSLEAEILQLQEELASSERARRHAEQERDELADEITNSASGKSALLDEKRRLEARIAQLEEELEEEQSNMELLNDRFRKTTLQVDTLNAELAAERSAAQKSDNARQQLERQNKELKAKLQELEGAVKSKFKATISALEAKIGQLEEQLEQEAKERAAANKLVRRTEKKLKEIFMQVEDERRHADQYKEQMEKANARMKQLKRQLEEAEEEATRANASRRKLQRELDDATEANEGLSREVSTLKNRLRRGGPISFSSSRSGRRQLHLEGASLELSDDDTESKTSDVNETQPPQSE

Molecule	secretion of collagen α1(I) polypeptide into the medium [2]	secretion of collagen α2(I) polypeptide into the medium [2]	secretion/expression of fibronectin [2]	secretion of collagen α1(I) polypeptide into the medium [3]	secretion of collagen α2(I) polypeptide into the medium [3]	secretion/expression of fibronectin [3]	binding result [5]	other results
C[C@@H]1C[C@@H]([C@H](O)CC2CC(=O)NC(=O)C2)C(=O)[C@@H](C)C1 [cycloheximide]	–	–	–	–	–	–	–	collagen α1(I) and α2(I) mRNAs pulled down with nonmuscle myosin IIB [1]: both collagen mRNAs were pulled down
Cc1ccc2c(c1)C(=O)C1(O)CCN(c3ccccc3)C1=N2 (centres unmarked) [blebbistatin]	minimally affecting	reduced	small effect	minimally affecting	abolished	small effect	–	intracellular level of collagen α1(I) and α2(I) polypeptides [2]: unchanged; intracellular level of collagen α1(I) polypeptide [3]: unchanged; intracellular level of collagen α2(I) polypeptide [3]: unchanged
C=C1[C@@H](C)[C@H]2[C@H](Cc3ccccc3)NC(=O)[C@]23OC(=O)/C=C/[C@H](O)CCC[C@@H](C)C/C=C/[C@H]3[C@@H]1O [cytochalasin B]	diminished	diminished	had an effect	no effect	small effect	small effect	–	–
HA-tagged LARP6 lacking the C-terminal domain (ΔC-LARP6) (other, Expressed in human lung fibroblasts; also called HA-tagged ΔC-LARP6; C-terminal deletion mutant of LARP6; not shown: HA tag) MAQSGGEARPGPKTAVQIRVAIQEAEDVDELEDEEEGAETRGAGDPARYLSPGWGSASEEEPSRGHSGTTASGGENEREDLEQEWKPPDEELIKKLVDQIEFYFSDENLEKDAFLLKHVRRNKLGYVSVKLLTSFKKVKHLTRDWRTTAHALKYSVVLELNEDHRKVRRTTPVPLFPNENLPSKMLLVYDLYLSPKLWALATPQKNGRVQEKVMEHLLKLFGTFGVISSVRILKPGRELPPDIRRISSRYSQVGTQECAIVEFEEVEAAIKAHEFMITESQGKENMKAVLIGMKPPKKKP	–	–	–	–	–	–	no binding	binding result [4]: no binding
HA-tagged RBMS3 (other, UniProt Q6XE24 1-437, looked up, Control protein expressed in human lung fibroblasts; not shown: HA tag) MGKRLDQPQMYPQYTYYYPHYLQTKQSYAPAPHPMAPPSPSTNSSSNNSSNNSSGEQLSKTNLYIRGLPPGTTDQDLIKLCQPYGKIVSTKAILDKNTNQCKGYGFVDFDSPAAAQKAVASLKANGVQAQMAKQQEQDPTNLYISNLPISMDEQELENMLKPFGHVISTRILRDANGVSRGVGFARMESTEKCEVVIQHFNGKYLKTPPGIPAPSEPLLCKFADGGQKKRQNQSKYTQNGRPWPREGEAGMALTYDPTAAIQNGFYSSPYSIATNRMIPQTSITPFIAASPVSTYQVQSTSWMPHPPYVMQPTGAVITPTMDHPMSMQPANMMGPLTQQMNHLSLGTTGTIQSQDRIMILHQLLCQYMTAAAPMQGTYIPQYTPVPPTAVSIEGVVADTSPQTVAPSSQDTSGQQQQIAVDTSNEHAPAYSYQQSKP	–	–	–	–	–	–	no binding	–
HA-tagged full-size LARP6 (other, Expressed from adenovirus in human lung fibroblasts and immunoprecipitated from cell lysate with anti-HA antibody; also called HA-tagged LARP6; not shown: HA tag) MAQSGGEARPGPKTAVQIRVAIQEAEDVDELEDEEEGAETRGAGDPARYLSPGWGSASEEEPSRGHSGTTASGGENEREDLEQEWKPPDEELIKKLVDQIEFYFSDENLEKDAFLLKHVRRNKLGYVSVKLLTSFKKVKHLTRDWRTTAHALKYSVVLELNEDHRKVRRTTPVPLFPNENLPSKMLLVYDLYLSPKLWALATPQKNGRVQEKVMEHLLKLFGTFGVISSVRILKPGRELPPDIRRISSRYSQVGTQECAIVEFEEVEAAIKAHEFMITESQGKENMKAVLIGMKPPKKKPAKDKNHDEEPTASIHLNKSLNKRVEELQYMGDESSANSSSDPESNPTSPMAGRRHAATNKLSPSGHQNLFLSPNASPCTSPWSSPLAQRKGVSRKSPLAEEGRLNCSTSPEIFRKCMDYSSDSSVTPSGSPWVRRRRQAEMGTQEKSPGTSPLLSRKMQTADGLPVGVLRLPRGPDNTRGFHGHERSRACV	–	–	–	–	–	–	–	binding result [6]: no binding
